One molecule from patent publication US20210177814A1, “USE OF GUANABENZ OR DERIVATES THEREOF FOR THE TREATMENT OF TYPE I IFN-DEPENDENT PATHOLOGIES” (INSERM (Institut National de la Santé et de la Recherche …, priority 2018, published 2021) can be followed below.

The assay has as its system dendritic cells (TLR stimulation). Kind of assay: IFN-β and IL-6 production by WT and GADD34ΔC/ΔC DCs stimulated with TLR ligands. The settings on record: GBZ 50 μM. Format: cell-based, mouse. As to the method: BM-derived DCs were differentiated in vitro from the bone marrow of 6-8 weeks old male mice, using either FLT3 ligand or GM-CSF. Flt3L-DCs were used for experiments between days 6 and 7. Flt3L was produced using B16-Flt3L hybridoma cells. Bone marrow progenitors were plated at 1.5 10^6 cells/ml, 4 ml/well in 6 well plate, and cultivated with RPMI (GIBCO), 10% FCS (Sigma Aldrich), 100 units/ml penicillin and 100 μg/ml streptomycin (GIBCO), 50 μM b-mercaptoethanol (VWR) and Flt3L. For sorted Flt3L-DCs, cells were gently harvested at day 7 with cold PBS 2% FCS, centrifuged 1200 rpm 5 min at 4° C., counted and stained with for 30 mins at 4° C. Cells were sorted with the FACS ARIASorp. Cells were kept on ice all the time. After sorting, cells were resuspended in supplemented Flt3L-DCs medium at the concentration of 0.2 0.10^6 cells/well and plated at in a 96 wells plate U bottom. GM-CSF DCs were produced and used for experiments at day 6 of differentiation.
Splenocytes were dissociated injecting Liberase TL, followed by 25 min incubation at 37° C. Cells were washed using MACS buffer (PBS 1X+1% FBS+2 mM EDTA) and passed in a cell strainer 70 μm, then centrifuged 5 min at 450 RCF, 4° C. Red blood cells were lysed using the commercial buffer from eBioscience. Dendritic cells were purified using CD11c^+ positive selection kit from Miltenyi. Splenic DCs were then resuspended in the same medium as for Flt3L-DCs at 1.10^6 cells/ml and plated in a 12 wells plate, 2 ml×well. B lymphocytes were purified using B cell isolation kit, a negative selection kit from Miltenyi. B cells were then resuspended in a medium composed of RPMI (GIBCO), 10% FCS (Sigma Aldrich), lx glutamine, 1× non-essential amino acids, 10 mM HEPES (all the previous from GIBCO), 50 μM b-mercaptoethanol (VWR). Cells were plated at 1×10^6 cells/well in 96 well plate, flat.
Mouse IFN-β quantification in culture supernatant was performed using the Mouse Interferon Beta ELISA kit (PBL InterferonSource); mouse IL-6, TNFα, IL-10, human TNFα and human IFNα were quantified using ELISA kit (eBioscience) respectively, according to manufacturer instructions.
We have previously shown that GM-CSF-induced bone-marrow-derived DCs from GADD34^ΔC/ΔC mouse display limited capacity to express IFNβ and IL-6 in response to the dsRNA mimic polyriboinosinic:polyribocytidylic acid (poly(I:C)). We investigated whether this observation could be extended to other DC subsets and TLR ligands. WT and GADD34^ΔC/ΔC DC isolated directly from spleen or generated in vitro from bone-marrow progenitors, using either Flt3L- or GM-CSF-induced differentiation, were submitted to stimulation with LPS, poly(I:C) or CpG ODN and analyzed for IFN-β and IL-6 production (data not shown). […]

The mark [1] stands for this setting: GADD34ΔC/ΔC Flt3L-DCs, CpG ODN stimulation.

As to `NC(N)=N/N=C/c1c(Cl)cccc1Cl` [GBZ, 2-(2,6-dichlorobenzylidene)-hydrazinecarboximidamide], under setting [1], the IFN-β production entry was “incapable of producing” and the IL-6 production entry is “incapable of producing”. Moreover, under “data not shown”, the “IFN-β production in response to TLR9 stimulation compared with Gadd34 genetic inactivation” value is “far stronger capacity to inhibit” and the “IL-6 production compared with Gadd34 genetic inactivation” value is “superimposable to GADD34 deficiency”.
